Read-outs that look alike come from different tables or passages of the source. Peptide text beside a SMILES is read from it.
Columns and labels:
HIV-1 DNA = assay: Southern blot of proviral DNA in HIV-1 infected H-9 cells; format: cell-based; conditions: 0-2,000 μM; first 24 h
Method: To study proviral DNA and viral RNA synthesis, DNA and RNA from HIV-1 infected H-9 cells cultured in the presence of a small peptide were prepared at various time points (0-48 h).

HIV-1 [1] = conditions: for p24 / p24 (OD) / reduction (%): Experiment 5, H9 cells; for reduction of HIV-1 infectivity, p24 antigen in cell supernatants: Table 6
Method: In Experiment 5, (Table 6) approximately 200,000 H9 cells were infected with HIV-1 at 25 TCID50 to test the inhibitory effect of different concentrations of peptides GPG-NH2, GKG-NH2 and CQG-NH2 and combinations of these peptides. As above, H9 cells were resuspended with or without the different peptides at varying concentrations in 1 ml of RPMI 1640 medium supplemented with 10% (v/v) heat-inactivated fetal bovine serum (FBS), penicillin (100 u/ml), streptomycin (100 u/ml), and Polybrene (2 μg/ml). Thereafter, viruses were added at 25 TCID50 in a volume of 20-30 μl. Cells were incubated with the indicated virus at 37° C. for 1 hr then pelleted at 170×g for 7 minutes. The cells were then washed three times in RPMI medium without peptides at room temperature and pelleted at 170×g for 7 minutes, as above. After the final wash, the cells were resuspended in RPMI culture medium containing the peptides in a 24-well plate (Costar corporation) and kept at 37° C. in 5% CO2 with humidity.
Culture supernatants were collected when the medium was changed at 4, 7, and 14 days post infection. The replication of each virus was monitored by detecting the presence of p24 in the supernatants. HIV p24 antigen was determined using a commercially available HIV p24 antigen detection kit (Abbott). The results are presented as absorbance values (OD) and higher absorbance indicates a higher protein concentration and greater viral infection. In some cases, serial dilutions of the supernatants were made so as to more accurately detect p24 concentration.
The percent reduction tabulated in Table 6 was calculated by dividing amount of p24 antigen detected in the peptide-treated sample by the amount of p24 antigen detected in the control sample, multiplying this dividend by 100 to obtain a percentage, and subtracting the dividend percentage by 100%.

HIV-1 [2] = conditions: 100 μM, H9 cells
From the text: In this example, the methods that were used to analyze the ability of various tripeptides to inhibit HIV-1, HIV-2, and SIV replication are disclosed. In Experiments 1 and 2, approximately 200,000 H9 cells were infected with HIV-1, HIV-2 or SIV at 25 TCID50 to test the inhibitory effect of the following synthesized tripeptides LKA-NH2, ILK-NH2, GPQ-NH2, GHK-NH2, GKG-NH2, ACQ-NH2, CQG-NH2, ARV-NH2, KAR-NH2, HKA-NH2, GAT-NH2, KAL-NH2, and GPG-NH2. Accordingly, the H9 cells were resuspended with or without the different peptides (approximately 100 μM) in 1 ml of RPMI 1640 medium supplemented with 10% (v/v) heat-inactivated fetal bovine serum (FBS), penicillin (100 u/ml), and streptomycin (100 u/ml), all available through GIBCO, and Polybrene (2 μg/ml), available through Sigma. Thereafter, viruses were added at 25 TCID50 in a volume of 20-30μl. Cells were incubated with virus at 37° C. for 1 hr then pelleted at 170×g for 7 minutes. The cells were then washed three times in RPMI medium without peptides at room temperature and pelleted at 170×g for 7 minutes, as above. After the final wash, the cells were resuspended in RPMI culture medium containing the peptides in a 24-well plate (Costar corporation) and were kept at 37° C. in 5% CO2 with humidity.
Culture supernatants were collected and analyzed when the medium was changed at 4, 7, 10, and 14 days post infection. To monitor the replication of virus, reverse transcriptase (RT) activity in the supernatants was assayed using a commercially available Lenti-RT activity kit. (Cavidi Tech, Uppsala, Sweden). The amount of RT was determined with the aid of a regression line of standards. The results are presented as absorbance values (OD) and higher absorbance indicates a higher protein concentration and greater viral infection. Syncytium formation was also monitored by microscopic examination.

HIV-1 [3] = conditions: Experiment 6; Day 7 HIV-1; 100 μM; HUT78 cells
Method: In experiment 6 (Table 7 and FIG. 1), approximately 200,000 HUT78 cells were infected with HIV-1 at 25 TCID50 to test the inhibitory effect of GPG-NH2, RQG-NH2, KQG-NH2, ALG-NH2, GVG-NH2, VGG-NH2, ASG-NH2, SLG-NH2, and SPT-NH2. The HUT cells were resuspended in lml of RPMI 1640 medium supplemented with 10% (v/v) heat-inactivated fetal bovine serum (FBS, GIBCO), penicillin (100 u/ml), streptomycin (100 u/ml) and Polybrene (Sigma, 2 μg/ml) with or without the presence of the different small peptides (100 μM) mentioned above. Thereafter, the HIV-1 virus was added at 25 TCID50 in a volume of 20 μl. Cells were incubated with the virus at 37° C. for one hour and, subsequently, the cells were pelleted at 170×g for seven minutes. The cells were then washed three times in RPMI medium without peptides at room temperature by cell sedimentation at 170×g for seven minutes, as above. After the final wash, the cells were resuspended in RPMI culture medium containing the peptides in 24-well plate (Costar corporation) and were kept at 37° C. in 5% CO2 with humidity. Culture supernatants were collected when medium was changed at day 4, 7, and 11 post infection and viral p24 production was monitored by using an HIV-1 p24 ELISA kit (Abbott Laboratories, North Chicago, USA).

influenza = assay: inhibition of influenza virus; format: cell-based
HIV-1 SF-2 virus = assay: combination of GPG-NH2 with AZT or Ritonavir in HUT78 cells, p24; format: cell-based

Compound	p24 (HIV-1 [1]; Day 7 HIV-1, 100 μM) [pg/mL]	p24 (OD) (HIV-1 [1]; Day 7 HIV-1, 100 μM)	reduction (%) (HIV-1 [1]; Day 7 HIV-1, 100 μM)	p24 (HIV-1 [1]; Day 7 HIV-1, 300 μM) [pg/mL]	p24 (OD) (HIV-1 [1]; Day 7 HIV-1, 300 μM)	reduction (%) (HIV-1 [1]; Day 7 HIV-1, 300 μM)	p24 (HIV-1 [1]; Day 14 HIV-1, 100 μM) [pg/mL]	p24 (OD) (HIV-1 [1]; Day 14 HIV-1, 100 μM)	reduction (%) (HIV-1 [1]; Day 14 HIV-1, 100 μM)	p24 (HIV-1 [1]; Day 14 HIV-1, 300 μM) [pg/mL]	p24 (OD) (HIV-1 [1]; Day 14 HIV-1, 300 μM)	reduction (%) (HIV-1 [1]; Day 14 HIV-1, 300 μM)	HIV-1 Syncytia (HIV-1 [2]; Experiment 1)	HIV-1 Syncytia (HIV-1 [2]; Experiment 2)	reduction of HIV-1 infectivity, p24 antigen in cell supernatants (HIV-1 [1]; 300 μM) [%]	p24 (HIV-1 [1]; Day 7 HIV-1, 1000 μM) [pg/mL]	p24 (OD) (HIV-1 [1]; Day 7 HIV-1, 1000 μM)	reduction (%) (HIV-1 [1]; Day 7 HIV-1, 1000 μM)	p24 (HIV-1 [1]; Day 14 HIV-1, 1000 μM) [pg/mL]	p24 (OD) (HIV-1 [1]; Day 14 HIV-1, 1000 μM)	other results
NCC(=O)N1CCC[C@H]1C(=O)NCC(N)=O [GPG-NH2, glycyl-prolyl-glycine amide] (H-Gly-Pro-Gly-NH2)	160	0.508 OD	100	180	0.557 OD	100	663	1.76 OD	100	498	1.35 OD	100	neg	neg							HIV-1 entry and proviral DNA synthesis (HIV-1 DNA): no inhibitory effect; p24 (HIV-1 [1]; Day 7 HIV-1, 20 μM): 421 pg/mL; p24 (OD) (HIV-1 [1]; Day 7 HIV-1, 20 μM): 1.159 OD; reduction (%) (HIV-1 [1]; Day 7 HIV-1, 20 μM): 99%; p24 (HIV-1 [1]; Day 14 HIV-1, 20 μM): 40600 pg/mL; p24 (OD) (HIV-1 [1]; Day 14 HIV-1, 20 μM): 1.12 × 10^2 OD; reduction (%) (HIV-1 [1]; Day 14 HIV-1, 20 μM): 97%; p24 (HIV-1 [3]): 560 pg/mL; reduction (%) (HIV-1 [3]): 97%; inhibition of influenza virus (influenza): failed inhibit either influenza or polio viruses; effect on inhibition of HIV-1 replication in the presence of AZT (HIV-1 SF-2 virus; combination with AZT): synergistically; antiviral effect together with Ritonavir (HIV-1 SF-2 virus; combination with Ritonavir): additive antiviral effect
cystyl-glutaminyl-glycine amide [CQG-NH2]	5620	1.51 × 10^1 OD	86	1920	0.59 × 10^1 OD	95	1.47e+06	0.48 × 10^4 OD	0	2400	0.11 × 10^2 OD	100	neg	neg	~100	320	0.91	99	280	0.13 × 10^1 OD	reduction (%) (HIV-1 [1]; Day 14 HIV-1, 1000 μM): 100%
NCCCC[C@H](NC(=O)CN)C(=O)NCC(N)=O [GKG-NH2, glycyl-lysyl-glycine amide] (H-Gly-Lys-Gly-NH2)	1830	0.566 × 10^1 OD	95	388	1.08 OD	99	551000	1.48 × 10^3 OD	61	870	0.33 × 10^1 OD	100	neg	neg	~100	273	0.79	100	240	0.11 × 10^1 OD	reduction (%) (HIV-1 [1]; Day 14 HIV-1, 1000 μM): 100%

Reference: patent US20020091086A1, “Peptides that block viral infectivity and methods of use thereof” (priority 1999, published 2002)
